Measurements taken from patent US7056938B1, “Method for scavenging radicals with urocanic acid, derivatives and analogues” (Academisch Ziekenhuis Bij De Univ., priority 1999, dated 2006).

Experiment: deoxyribose (dR) degradation test, hydroxyl radical scavenging
Format: biochemical
Description: Trans-UCA, cis-UCA, related imidazoles and non-imidazole compounds were tested with regard to their ability to compete with deoxyribose to scavenge hydroxyl radicals. On exposure to hydroxyl radicals deoxyribose is degraded into malondialdehyde, which reacts with thiobarbituric acid to form a pink chromogen. Powerful hydroxyl-radical scavengers will compete with deoxyribose, resulting in a reduced amount of malondialdehyde. Ten compounds, UCA, UCA analogues, alanine and uric acid (FIG. 1) were tested on their ability to scavenge hydroxyl radicals.
Method: the deoxyribose (dR) degradation test. The test was analogous to an earlier described method. Briefly, the reactions were performed in 5 mL screw cap glass tubes in a final volume of 1.0 mL sodium phosphate buffer (50 mM; pH 7.2), containing 3.0 mM 2 deoxy-D-ribose, 0.5 mM hydrogen peroxide and one of the test compounds at graded concentrations. The reaction was started by the addition of premixed disodium EDTA and ferrous iron solution (final concentrations 0.5 mM and 0.2 mM, respectively). The mixture was left for 15 minutes at room temperature. After addition of 1.0 mL 1% thiobarbituric acid in 50 mM NaOH and 0.75 mL 2.8% trichloroacetic acid, the tubes were heated for 20 minutes in a boiling water bath. The pink color was read at 532 nm and reciprocal absorption values were plotted against the concentration of the test compound after subtraction of appropriate blanks. A series of six duplicate determinations from test compound dilutions was employed to construct a graph slope for the calculation of a rate constant value. The mean, SD, number of rate constants and the percentage of inhibition of deoxyribose degradation, calculated for each test compound, are listed. Results. All second-order rate constants for reaction with hydroxyl radicals and, in addition, the percentage inhibition of deoxyribose degradation with equimolar concentrations (3 mM) of scavenger are summarized in Table 1. Trans-UCA and cis-UCA are substantially more powerful in scavenging hydroxyl radicals (8.0 and 7.1×10^3 M^−1,s^−1, respectively), than the other 4-(5-)-substituted imidazoles, including L-histidine (2.6×10^2 M^−1,s^−1). L-histidine, the precursor of UCA, was included as a known moderate scavenger with structural similarities to UCA. L-alanine was used as a known poor scavenger. Trans-FAA was tested as a non-imidazole acrylic acid derivative, having a furan ring instead.
FIG. 2. A determination of the second order rate constants of trans-UCA and cis-UCA with hydroxyl radicals. The rate constant was derived from the slope of the line (k=slope×kdR×[dR]×A0), where A0 is the absorbance, measured in the absence of hydroxyl radical scavenger. KdR was taken as 3.1×10^9 M^−1,s^−1, derived from pulse radiolysis studies, and [dR]=3 mM. […] The other scavengers were studied similarly.

O=C(O)/C=C/c1cnc[nH]1 [trans-Urocanic acid, Trans-urocanic acid]
INHIBITION of DEOXYRIBOSE DEGRADATION ([SCAVENGER] = [DEOXYRIBOSE] = 3 Mm): 67%
SECOND ORDER RATE CONSTANT for reaction with hydroxyl radicals (mean of n slopes, sodium phosphate buffer pH 7.2): 8e+09 M⁻¹ s⁻¹
second order rate constant in the particular set of FIG. 2 (single set of FIG. 2, kdR 3.1×10^9, [dR]=3 mM): 8.49 ×10^9 M^−1,s^−1
